Values quoted from earlier work in US20110152294A1, “USE OF OSMOLYTES OBTAINED FROM EXTREMOPHILIC BACTERIA FOR THE PRODUCTION OF INHALABLE MEDICAMENTS FOR THE PROPHYLAXIS AND TREATMENT OF PULMONARY AND CARDIOVASCULAR DISEASES AND AN INHALATION DEVICE COMPRISING OSMOLYTE AS ACTIVE AGENT COMPONENT” (priority 2003, published 2011).

Tested on: cornea and iris of the eyes of rabbits
Conditions: external application on cornea and iris of rabbit eyes; effects disappeared afterwards

CC1=NC[C@H](O)[C@@H](C(=O)O)N1 [hydroxyectoine]
eye irritation after external application: initial irritation and sensitization of the conjunctiva
